Data reported in the supplement of paper PMC10878532, “Sperm Toolbox—A selection of small molecules to study human spermatozoa” (PLOS ONE, 2024).
Structures can show the parent of a compound that is named as a salt.

Legend:
[1] = test system: HeLa; assay: HeLa toxicity: nuclei-count effect normalised to DMSO (DMSO = 0); higher = more features changed / larger toxic effect; conditions: incubation time: 24h incubation
[2] = test system: HepG2; assay: HepG2 toxicity (resazurin), effect normalised to DMSO (DMSO = 0); higher = more features changed / larger toxic effect; conditions: incubation time: 70h incubation
[3] = test system: human spermatozoa; assay: viability fold change, 1 - (PI-positive fraction / DMSO median); higher = more of the measured sperm population than DMSO, for viability, fewer PI-positive (dead) cells than DMSO; conditions: incubation time: 3h, non-capacitating
[4] = test system: HeLa; assay: Cell Painting percent induction (share of features beyond 2 z-scores vs DMSO); higher = more features changed / larger toxic effect; extreme values may be limits of the assay; conditions: incubation time: 24h incubation
[5] = test system: human spermatozoa; assay: total motile sperm, percent change vs DMSO (non-capacitating); higher = more of the measured sperm population than DMSO, for viability, fewer PI-positive (dead) cells than DMSO
[6] = test system: human spermatozoa; assay: change in acrosome-reacted (PNA+) sperm vs DMSO, no agonist (capacitating); higher = more of the measured sperm population than DMSO, for viability, fewer PI-positive (dead) cells than DMSO; conditions: incubation time: 3h
[7] = test system: human spermatozoa; assay: acrosome-reacted (PNA+) sperm after agonist cocktail, percent change vs DMSO (capacitating); higher = more of the measured sperm population than DMSO, for viability, fewer PI-positive (dead) cells than DMSO; conditions: incubation time: 3h, capacitating + agonist cocktail 1h
[8] = test system: human spermatozoa; assay: hyperactivated motile sperm, percent change vs DMSO (capacitating); higher = more of the measured sperm population than DMSO, for viability, fewer PI-positive (dead) cells than DMSO; conditions: incubation time: 30min incubation
[9] = test system: human spermatozoa; assay: progressively motile sperm, percent change vs DMSO (non-capacitating); higher = more of the measured sperm population than DMSO, for viability, fewer PI-positive (dead) cells than DMSO; extreme values may be limits of the assay
[10] = test system: human spermatozoa; assay: progressively motile sperm, percent change vs DMSO (capacitating); higher = more of the measured sperm population than DMSO, for viability, fewer PI-positive (dead) cells than DMSO; conditions: incubation time: 30min incubation
[11] = incubation time: 10min incubation, 9.99 µM
[12] = incubation time: 10min incubation, 29.9 µM
[13] = incubation time: 3h incubation, 9.99 µM
[14] = incubation time: 3h incubation, 29.9 µM
[15] = incubation time: 6h incubation, 9.99 µM
[16] = incubation time: 6h incubation, 29.9 µM
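Throughout, for progressively motile sperm, percent change vs DMSO (non-capacitating): pooled live human sperm from at least 3 donors, tracked by automated microscopy in 0.5 s time-lapse movies, compounds at 10 and 30 µM, versus median of 16 DMSO wells per plate.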
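Throughout, for total motile sperm, percent change vs DMSO (non-capacitating): sperm pooled from at least 3 donors, tracked in 0.5 s time-lapse movies by automated microscopy after 10 min, 3 h or 6 h with compound at 10 or 30 µM.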

| Compound | HeLa toxicity: nuclei-count effect normalised ([1]; 9.99 µM) [%] | HeLa toxicity: nuclei-count effect normalised ([1]; 29.9 µM) [%] | HepG2 toxicity ([2]; 10 µM) [%] | HepG2 toxicity ([2]; 30 µM) [%] | viability fold change ([3]; 9.99 µM) | viability fold change ([3]; 29.9 µM) | Cell Painting percent induction ([4]; 9.99 µM) [%] | Cell Painting percent induction ([4]; 29.9 µM) [%] | total motile sperm [5, 11] [%] | total motile sperm [5, 12] [%] | total motile sperm [5, 13] [%] | total motile sperm [5, 14] [%] | total motile sperm [5, 15] [%] | total motile sperm [5, 16] [%] | change in acrosome-reacted ([6]; 9.99 µM) [%] | change in acrosome-reacted ([6]; 29.9 µM) [%] | acrosome-reacted ([7]; 9.99 µM) [%] | acrosome-reacted ([7]; 29.9 µM) [%] | hyperactivated motile sperm ([8]; 9.99 µM) [%] | hyperactivated motile sperm ([8]; 29.9 µM) [%] | progressively motile sperm [9, 11] [%] | progressively motile sperm [9, 12] [%] | progressively motile sperm [9, 13] [%] | progressively motile sperm [9, 14] [%] | progressively motile sperm [9, 15] [%] | progressively motile sperm [9, 16] [%] | progressively motile sperm ([10]; 9.99 µM) [%] | progressively motile sperm ([10]; 29.9 µM) [%] |
| --- | --- | --- | --- | --- | --- | --- | --- | --- | --- | --- | --- | --- | --- | --- | --- | --- | --- | --- | --- | --- | --- | --- | --- | --- | --- | --- | --- | --- |
| C=C[C@@]1(C)CC(=O)[C@@]2(O)[C@](C)(O1)[C@@H](OC(C)=O)[C@@H](O)C1C(C)(C)CC[C@H](O)[C@@]12C (some centres not stated) [Forskolin] | -1.74 | -1.47 | 3.42 | -7.11 | -0.712 | -0.989 | 1.19 | 0.108 | 0.618 | 0.675 | -0.0205 | 4.68 | -0.697 | -0.227 | 0.404 | 0.226 | 0.165 | -4.34 | 26.6 | 5.16 | 0.859 | 0.86 | 3.82 | 13.8 | -0.781 | 12 | 7.73 | 8.32 |
| O=c1c(-c2ccc(O)cc2)coc2cc(O)cc(O)c12 [Genistein] | 17.4 | 22.9 | 6.96 | -8.2 | -0.643 | -0.0998 | 0.108 | 0.612 | -0.344 | -2.3 | -0.864 | 0.829 | -0.945 | -6.76 | 1.12 | 1.51 | 4.37 | 8.14 | 20.2 | -0.318 | 5.98 | 2.04 | 6.38 | 0.504 | 9.21 | 2.89 | 9.31 | 12 |
| Cc1cc2c(C(C)C)c(O)c(O)c(C=O)c2c(O)c1-c1c(C)cc2c(C(C)C)c(O)c(O)c(C=O)c2c1O [Gossypol] | 27.1 | 73.1 | 54.9 | 102 | -0.0154 | 0.577 | 0.072 | 17.1 | -1.73 | 0.377 | -2.73 | -0.0743 | -0.633 | -2.29 | 1.41 | 1.17 | -15.6 | -28.9 | -21.9 | -39.1 | -3.27 | -2.36 | 3.33 | -8.54 | 12.2 | -12.2 | -0.382 | 7.08 |
| O=S(=O)(NCCNC/C=C/c1ccc(Br)cc1)c1cccc2cnccc12 [H 89 dihydrochloride] | 7.55 | 17.5 | -3.98 | 92.3 | -0.8 | -1.21 | 0.648 | 1.84 | 5.7 | 1.67 | 2.42 | 2.31 | 2.24 | 1.63 | 0.62 | 0.493 | 4.9 | 11.9 | 4.83 | -35.2 | 12.9 | 3.24 | 21.9 | 3.91 | 27.7 | 10.5 | 9.41 | 1.95 |
